From patent US20240082223A1, “DIHYDROFUROPYRIDINE DERIVATIVES AS RHO- KINASE INHIBITORS” (CHIESI FARMACEUTICI S.P.A., priority 2020, published 2024) come the findings set out here.

What all share (assay type): biochemical
In assay [1] the target is T1, ROCK1 (Homo sapiens, UniProt Q13464). Nature of the assay: In vitro inhibitory activity assay ROCK1 (Method B, ADP-Glo, 200 μM ATP). The conditions noted are these: ATP 200 μM, read-out: Method B ROCK 1 (Ki). How it is done: (§1) In Vitro Inhibitory Activity Assay Description ROCK1 and ROCK2
T1 sequence (Q13464 whole entry): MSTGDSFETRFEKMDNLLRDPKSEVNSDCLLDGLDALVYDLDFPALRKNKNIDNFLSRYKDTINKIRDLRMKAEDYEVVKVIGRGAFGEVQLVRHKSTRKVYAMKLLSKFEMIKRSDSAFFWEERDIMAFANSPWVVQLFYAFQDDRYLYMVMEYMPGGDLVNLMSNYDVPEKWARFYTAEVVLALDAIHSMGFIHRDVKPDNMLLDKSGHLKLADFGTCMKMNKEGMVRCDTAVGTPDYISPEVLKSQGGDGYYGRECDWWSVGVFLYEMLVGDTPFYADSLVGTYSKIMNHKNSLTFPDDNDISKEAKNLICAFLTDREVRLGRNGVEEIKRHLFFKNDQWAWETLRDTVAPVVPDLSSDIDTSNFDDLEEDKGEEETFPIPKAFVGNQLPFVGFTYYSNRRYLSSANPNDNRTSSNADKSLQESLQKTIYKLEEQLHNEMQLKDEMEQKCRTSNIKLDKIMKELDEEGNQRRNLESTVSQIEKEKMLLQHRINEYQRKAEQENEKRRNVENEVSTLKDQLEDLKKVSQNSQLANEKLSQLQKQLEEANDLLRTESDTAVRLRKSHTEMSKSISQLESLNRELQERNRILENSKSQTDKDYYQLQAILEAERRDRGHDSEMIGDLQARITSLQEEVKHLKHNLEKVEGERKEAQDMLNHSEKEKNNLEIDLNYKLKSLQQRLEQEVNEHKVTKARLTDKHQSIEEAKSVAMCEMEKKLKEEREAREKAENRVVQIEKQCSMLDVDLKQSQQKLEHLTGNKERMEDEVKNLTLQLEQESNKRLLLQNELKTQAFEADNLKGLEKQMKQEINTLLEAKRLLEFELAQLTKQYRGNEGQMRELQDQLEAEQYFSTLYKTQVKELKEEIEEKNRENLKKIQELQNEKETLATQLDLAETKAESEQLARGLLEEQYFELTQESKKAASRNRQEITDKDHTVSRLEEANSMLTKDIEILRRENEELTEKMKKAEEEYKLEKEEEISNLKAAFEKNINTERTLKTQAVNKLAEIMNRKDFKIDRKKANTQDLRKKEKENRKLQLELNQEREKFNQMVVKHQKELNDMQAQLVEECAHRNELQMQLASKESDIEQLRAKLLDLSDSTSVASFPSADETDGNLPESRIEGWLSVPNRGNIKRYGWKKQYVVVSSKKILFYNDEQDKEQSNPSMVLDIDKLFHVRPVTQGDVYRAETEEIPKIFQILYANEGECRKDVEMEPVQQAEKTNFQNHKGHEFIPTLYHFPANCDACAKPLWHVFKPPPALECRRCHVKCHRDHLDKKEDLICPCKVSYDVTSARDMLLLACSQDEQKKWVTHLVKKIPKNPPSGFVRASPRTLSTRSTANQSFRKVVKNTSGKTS
(§2) The effectiveness of compounds of the present invention to inhibit Rho kinase activity can be determined in a 10 μl assay containing 40 mM Tris pH7.5, 20 mM MgCl2 0.1 mg/mL BSA, 50 μM DTT and 2.5 μM peptide substrate (Myelin Basic Protein) using an ADP-Glo kit (Promega). Compounds were dissolved in DMSO such that the final concentration of DMSO was 1% in the assay. All reactions/incubations are performed at 25° C. Compound (2 μL) and either Rho kinase 1 or 2 (4 μl) were mixed and incubated for 30 min. Reactions were initiated by addition of ATP (4 μL) such that the final concentration of ATP in the assay was 200 μM. After a 1 hour incubation 10111 of ADP-Glo Reagent was added and after a further 45 minute incubation 20 μL of Kinase Detection Buffer was added and the mixture incubated for a further 30 minutes. The luminescent signal was measured on a luminometer. […] Compounds were tested in dose-response format and the inhibition of kinase activity was calculated at each concentration of compound. To determine the IC50 (concentration of compound required to inhibit 50% of the enzyme activity) data were fit to a plot of % inhibition vs Log10 compound concentration using a sigmoidal fit with a variable slope and fixing the maximum to 100% and the minimum to 0%. To determine the Ki values the Cheng-Prusoff equation was utilized (Ki=IC50/(1[S]/Km).
On the technique in general: ADP-Glo first removes unused ATP, then detects ADP through luciferase.

A further assay concerns the target PKA (Homo sapiens, UniProt P17612). Nature of the assay: In vitro inhibitory activity assay for PKA (ADP-Glo), reported as selectivity ratio vs ROCK2. The conditions noted are these: Ki PKA divided by Ki ROCK2 (method B). How it is done: In vitro inhibitory activity assay description for PKA
The effectiveness of compounds of the present invention to inhibit PKA activity can be determined in a […], assay containing 40 mM Tris pH7.5, 20 mM MgCl2 0.1 mg/mL BSA, 50 μM DTT and 260 μM peptide substrate (kemptide) using an ADP-Glo kit (Promega). Compounds were dissolved in DMSO such that the final concentration of DMSO was 1% in the assay. All reactions/incubations are performed at 25° C. Compound and PKA enzyme (6 μl) were mixed and incubated for 30 min. Reactions were initiated by addition of ATP (4 μL) such that the final concentration of ATP in the assay was 10 μM. After a 30 minute incubation 10 μL of ADP-Glo Reagent was added and after a further 1 hour incubation 20 μL of Kinase Detection Buffer was added and the mixture incubated for a further 45 minutes. The luminescent signal was measured on a luminometer. […] Compounds were tested in dose-response format and the inhibition of kinase activity was calculated at each concentration of compound. To determine the IC50 (concentration of compound required to inhibit 50% of the enzyme activity) data were fit to a plot of % inhibition vs Log10 compound concentration using a sigmoidal fit with a variable slope and fixing the maximum to 100% and the minimum to 0%. To determine the Ki values the Cheng-Prusoff equation was utilized (Ki=IC50/(1+[S]/Km).
In vitro inhibitory activities for PKA were reported as selectivity ratio vs. ROCK2. Selectivity ratio PKA/ROCK2 was calculated by dividing the Ki value for PKA by Ki value of ROCK2 (method B) and reported into table 1.

In assay [2] the target is T1, ROCK1. In words: In vitro inhibitory activity assay ROCK1 (Method A, ADP-Glo, 10 μM ATP). The conditions noted are these: ATP 10 μM, read-out: Method A ROCK 1 (Ki). How it is done: (§3) In vitro inhibitory activity assay description ROCK1 and ROCK2
as §2, with “(2 uL)” for “(2 μL)”, “was 10” for “was 200”, “incubation […]” for “incubation 10111”, “45 minutes” for “45 minute”, “20 uL” for “20 μL”, “utilized (Ki=IC50/(1+[S]/Km).” for “utilized (Ki=IC50/(1[S]/Km).”

The target in assay [3] is T2, ROCK2 (Homo sapiens, UniProt O75116). In words: In vitro inhibitory activity assay ROCK2 (Method A, ADP-Glo, 10 μM ATP). The conditions noted are these: ATP 10 μM, read-out: Method A ROCK 2 (Ki). How it is done: as §3
T2 sequence (O75116 whole entry): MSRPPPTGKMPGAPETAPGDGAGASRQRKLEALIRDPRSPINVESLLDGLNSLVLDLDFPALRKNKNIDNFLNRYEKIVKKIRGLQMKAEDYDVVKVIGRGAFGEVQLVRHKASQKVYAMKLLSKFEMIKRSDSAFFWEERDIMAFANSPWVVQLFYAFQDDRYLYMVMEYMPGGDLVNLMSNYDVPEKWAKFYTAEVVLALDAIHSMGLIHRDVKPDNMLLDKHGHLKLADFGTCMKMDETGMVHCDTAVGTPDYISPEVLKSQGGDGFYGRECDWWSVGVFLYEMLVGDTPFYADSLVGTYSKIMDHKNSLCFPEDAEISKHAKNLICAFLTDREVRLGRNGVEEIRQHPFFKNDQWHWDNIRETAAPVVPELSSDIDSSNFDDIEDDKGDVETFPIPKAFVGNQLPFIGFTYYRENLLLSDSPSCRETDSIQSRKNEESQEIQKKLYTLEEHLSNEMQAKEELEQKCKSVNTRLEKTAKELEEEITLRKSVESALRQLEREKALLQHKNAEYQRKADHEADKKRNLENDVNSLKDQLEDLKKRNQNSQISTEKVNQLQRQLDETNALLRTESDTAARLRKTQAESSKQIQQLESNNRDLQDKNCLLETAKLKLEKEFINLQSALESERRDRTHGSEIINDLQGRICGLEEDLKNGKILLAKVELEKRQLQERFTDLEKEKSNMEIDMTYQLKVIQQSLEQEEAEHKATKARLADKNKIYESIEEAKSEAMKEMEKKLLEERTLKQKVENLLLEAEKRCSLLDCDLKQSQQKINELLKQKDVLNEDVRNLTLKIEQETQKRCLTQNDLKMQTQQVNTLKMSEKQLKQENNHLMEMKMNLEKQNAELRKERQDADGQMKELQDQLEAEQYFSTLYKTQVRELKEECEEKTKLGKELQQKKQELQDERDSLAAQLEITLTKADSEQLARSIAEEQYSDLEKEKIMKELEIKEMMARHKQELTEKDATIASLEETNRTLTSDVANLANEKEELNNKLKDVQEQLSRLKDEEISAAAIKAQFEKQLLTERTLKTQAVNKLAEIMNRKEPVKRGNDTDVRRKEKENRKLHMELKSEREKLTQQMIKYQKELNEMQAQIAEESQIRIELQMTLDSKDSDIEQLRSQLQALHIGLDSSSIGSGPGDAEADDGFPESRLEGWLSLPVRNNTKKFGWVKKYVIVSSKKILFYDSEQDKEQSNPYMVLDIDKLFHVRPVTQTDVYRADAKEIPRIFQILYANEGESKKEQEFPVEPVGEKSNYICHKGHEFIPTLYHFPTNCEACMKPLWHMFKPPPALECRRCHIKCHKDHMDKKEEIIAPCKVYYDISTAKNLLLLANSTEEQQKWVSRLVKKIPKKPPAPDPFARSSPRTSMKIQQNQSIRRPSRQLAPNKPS
as §2, with “(2 uL)” for “(2 μL)”, “was 10” for “was 200”, “incubation […]” for “incubation 10111”, “45 minutes” for “45 minute”, “20 uL” for “20 μL”, “utilized (Ki=IC50/(1+[S]/Km).” for “utilized (Ki=IC50/(1[S]/Km).”

For assay [4], the target named is T2, ROCK2. Nature of the assay: In vitro inhibitory activity assay ROCK2 (Method B, ADP-Glo, 200 μM ATP). The conditions noted are these: ATP 200 μM, read-out: Method B ROCK 2 (Ki). How it is done: as §1, §2

Each structure is given as a SMILES string.

One may read the Ki as a measure of affinity in units of concentration, obtained from inhibition or displacement. On to `CN1CCC(CCNC(=O)c2cccc(CNc3ncc(-c4cn[nH]c4)c4c3CCO4)c2)CC1` [Example 16, 3-(((7-(1H-pyrazol-4-yl)-2,3-dihydrofuro[3,2-c]pyridin-4-yl)amino)methyl)-N-(2-(1-methylpiperidin-4-yl)ethyl)benzamide], for which the Ki on ROCK1 [1], at ROCK1 [2], at ROCK2 [3] and at ROCK2 [4] was not above 3 nM in each case. For the same molecule, the “Ratio Ki PKA/ROCK2” value on PKA is listed as “*** (ratio≥10)”.

Regarding `O=C(NCCC1CCN(C2COC2)CC1)c1cccc(CNc2ncc(-c3cn[nH]c3)c3c2CCO3)c1` [Example 28, 3-(((7-(1H-pyrazol-4-yl)-2,3-dihydrofuro[3,2-c]pyridin-4-yl)amino)methyl)-N-(2-(1-(oxetan-3-yl)piperidin-4-yl)ethyl)benzamide], the Ki on ROCK1 [1], at ROCK1 [2], on ROCK2 [3] and on ROCK2 [4] was not above 3 nM throughout. In addition, the “Ratio Ki PKA/ROCK2” value at PKA is “*** (ratio≥10)”.

As for `CN(C)C1CCc2nc(NC(=O)c3cccc(CNc4ncc(-c5cn[nH]c5)c5c4CCO5)c3)sc2C1` (stereo not shown) [Example 33, 3-(((7-(1H-Pyrazol-4-yl)-2,3-dihydrofuro[3,2-c]pyridin-4-yl)amino)methyl)-N-(6-(dimethylamino)-4,5,6,7-tetrahydrobenzo[d]thiazol-2-yl)benzamide], the inhibitory constant (Ki) on ROCK1 [1], on ROCK1 [2], at ROCK2 [3] and on ROCK2 [4] was not above 3 nM each time. The “Ratio Ki PKA/ROCK2” value at PKA was “*** (ratio≥10)”.

For the molecule `CN1CCn2nc(NC(=O)c3cccc(CNc4ncc(-c5cn[nH]c5)c5c4CCO5)c3)cc2C1` [Example 15, 3-(((7-(1H-pyrazol-4-yl)-2,3-dihydrofuro[3,2-c]pyridin-4-yl)amino)methyl)-N-(5-methyl-4,5,6,7-tetrahydropyrazolo[1,5-a]pyrazin-2-yl)benzamide], the inhibition constant (Ki) on ROCK1 [1], at ROCK1 [2], at ROCK2 [3] and on ROCK2 [4] was not above 3 nM throughout. The “Ratio Ki PKA/ROCK2” value at PKA is given as “*** (ratio≥10)”.

Turning to `O=C(NCCCF)c1cccc(CNc2ncc(-c3cn[nH]c3)c3c2CCO3)c1` [Example 3, 3-(((7-(1H-pyrazol-4-yl)-2,3-dihydrofuro[3,2-c]pyridin-4-yl)amino)methyl)-N-(3-fluoropropyl)benzamide], the inhibition constant Ki at ROCK1 [1] and at ROCK2 [4] was 3 to 30 nM each time. Also, the “Ratio Ki PKA/ROCK2” value on PKA was “*** (ratio≥10)”.

For the molecule `Cn1cnc(CNC(=O)c2cccc(CNc3ncc(-c4cn[nH]c4)c4c3CCO4)c2)c1` [Example 8, 3-(((7-(1H-pyrazol-4-yl)-2,3-dihydrofuro[3,2-c]pyridin-4-yl)amino)methyl)-N-((1-methyl-1H-imidazol-4-yl)methyl)benzamide], the inhibition constant (Ki) on ROCK1 [1] is 3 to 30 nM; at ROCK2 [4], not above 3 nM. Also, at PKA, the “Ratio Ki PKA/ROCK2” value is “*** (ratio≥10)”.

In the case of `c1ccc(CNc2ncc(-c3cn[nH]c3)c3c2CCO3)cc1` [Example C, N-Benzyl-7-(1H-pyrazol-4-yl)-2,3-dihydrofuro[3,2-c]pyridin-4-amine, reference compound], the Ki at ROCK1 [1] and at ROCK2 [4] was more than 30 nM each time. Further, the “Ratio Ki PKA/ROCK2” value on PKA is on record as “* (ratio≤5)”.

Take `O=C(Nc1ccncn1)c1cccc(CNc2ncc(-c3cn[nH]c3)c3c2CCO3)c1` [Example 32, 3-(((7-(1H-pyrazol-4-yl)-2,3-dihydrofuro[3,2-c]pyridin-4-yl)amino)methyl)-N-(pyrimidin-4-yl)benzamide]: the Ki at ROCK1 [1] and at ROCK2 [4] was not above 3 nM each time. The “Ratio Ki PKA/ROCK2” value on PKA was “*** (ratio≥10)”.

Turning to `O=C(Nc1nc2c(s1)CC(NC1COC1)CC2)c1cccc(CNc2ncc(-c3cn[nH]c3)c3c2CCO3)c1` (stereo not shown) [Example 34, 3-(((7-(1H-pyrazol-4-yl)-2,3-dihydrofuro[3,2-c]pyridin-4-yl)amino)methyl)-N-(6-(oxetan-3-ylamino)-4,5,6,7-tetrahydrobenzo[d]thiazol-2-yl)benzamide], the Ki on ROCK1 [1], on ROCK1 [2], on ROCK2 [3] and at ROCK2 [4] was not above 3 nM in each case. For the same molecule, on PKA, the “Ratio Ki PKA/ROCK2” value is “*** (ratio≥10)”.
